Measured values taken from patent publication US20040097555A1, “Concomitant drugs” (priority 2000, published 2004).

Tests used:
human p38 MAP kinase = biological target: T1, human p38 MAP kinase (Homo sapiens, UniProt Q16539); assay: Measurement of the enzyme inhibitory activity of active form p38 MAP kinase (32P uptake into Myelin Basic Protein), Reference Example C1; type: biochemical; conditions: concentration inhibiting uptake of 32P into acid insoluble fraction (Myelin Basic Protein) by 50%, Table 45
T1 construct: FLAG (N); made in house; host or cells: Sf-21 insect cells, baculovirus (BAC-HP38 co-infected with BAC-caMKK3)
T1 sequence (Q16539 whole entry): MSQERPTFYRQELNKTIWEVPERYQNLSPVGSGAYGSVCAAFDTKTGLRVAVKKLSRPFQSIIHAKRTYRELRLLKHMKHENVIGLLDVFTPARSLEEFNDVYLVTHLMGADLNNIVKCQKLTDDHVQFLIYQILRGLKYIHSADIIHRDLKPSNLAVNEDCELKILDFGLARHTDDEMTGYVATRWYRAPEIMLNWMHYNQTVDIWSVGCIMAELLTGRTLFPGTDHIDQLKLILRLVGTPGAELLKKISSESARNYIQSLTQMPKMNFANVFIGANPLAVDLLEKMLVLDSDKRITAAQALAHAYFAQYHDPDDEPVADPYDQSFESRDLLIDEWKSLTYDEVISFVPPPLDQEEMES
Description: (1) Cloning of Human p38 MAP Kinase Gene and Preparation of Recombinant Baculovirus
Cloning of human p38 MAP kinase gene was performed by a PCR method using a primer set P38-U: 5′-[…]-3′ [SEQ ID NO:1] and PAG-L: 5′-[…]-3′ [SEQ ID NO:2] made by the use of kidney cDNA (Toyobo, QUICK-Clone cDNA) as a template and referring to the base sequence of p38 MAP kinase gene reported by Han et al. (Science 265 (5173), 808-811 (1994)).
(2) Cloning of Human MKK3 Gene and Preparation of Recombinant Baculovirus
(3) Preparation of Active Form p38 MAP Kinase
The Sf-21 cells were seeded on 100 mL Sf-900II SFM medium (GIBCOBRL) to 1×10^6 cells/mL and cultured at 27° C. for 24 hours. After each 0.2 mL of the virusstock BAC-HP38 and BAC-caMKK3 of recombinant baculovirus were added, the culturing was further performed for 48 hours. After the cells were separated from the culturing solution by centrifugation (3000 rpm, 10 min), the cells were washed twice with PBS. After the cells were suspended in 10 ml Lysis buffer (25 mM HEPES (pH 7.5), 1% Triton X, […], 1 mM EDTA, 1 mM DTT, 25 mM β-glycerophosphate, […], 1 mM APMSF, 1 mM Sodium orthovanadate), the cells were lysed by treating twice in a homogenizer (POLYTRON) at 20000 rpm for 2 minutes. From the supernatant obtained by centrifugation (40000 rpm, 45 minutes), active form p38 MAP kinase was purified using Anti-FLAG M2 Affinity Gel (Eastman Chemical).
(4) Measurement of the Enzyme Inhibitory Activity
2.5 μL of a test compound dissolved in DMSO was added to 37.5 μL reaction solution (25 mM HEPES (pH 7.5), 10 mM Magnesium Acetate) containing 260 ng active form p38 MAP kinase and 1 μg Myelin Basic Protein, which was maintained at 30° C. for 5 minutes. The reaction was initiated by adding […] ATP solution (2.5 μM ATP, 0.1 μCi [g-^32P]ATP). After the reaction was performed at 30° C. for 60 minutes, the reaction was stopped by adding 50 μL 20% TCA solution. After the reaction solution was allowed to stand at 0° C. for 20 minutes, an acid insoluble fraction was transferred to GF/C filter (Packard Japan) using Cell Harvester (Packard Japan) and washed with 250 mM H3PO4. After drying at 45° C. for 60 minutes, 40 μL Microscint 0 (Packard Japan) was added and the radioactivity was measured with a TopCount (Packard Japan). The concentration (IC50 value) of the test compound necessary for inhibiting uptake of ^32P into an acid insoluble fraction by 50% was calculated with PRISM 2.01 (Graphpad Software).

[1] = tested on: TNF-α production in THP-1 cells; assay: Measurement of inhibiting activity of TNF-α production in LPS-stimulated THP-1 cells (ELISA), Experimental Example C2; type: cell-based; conditions: Homo sapiens, concentration inhibiting TNF-α production by 50%, LPS 5 μg/mL, 4 hour, Table 46
Description: (§1) Measurement of inhibiting activity of TNF-α production
After THP-1 cells which had been cultured on PRMI 1640 medium (manufactured by Life Technologies, Inc.) containing 1% inactivated bovine fetal serum (manufactured by Life Technologies, Inc., U.S.A.) and 10 mM HEPES (pH 7.5) seeded on a 96-well plate to 1×10^5 cells/well, 1 μL test compound dissolved in DMSO was added. After incubation at 37° C. for 1 hour in a CO2 incubator, LPS (Wako Pure Chemicals) was added to the final concentration 5 μg/mL. After cultured at 37° C. for 4 hour in a CO2 incubator, the supernatant was obtained by centrifugation. The concentration of TNF-α in the supernatant was measured by ELISA (R&D Systems, Quantikine Kit). The concentration (IC50 value) of the test compound necessary for inhibiting TNF-α production by 50% was calculated using PRIMS 2.01 (Graphpad Software).

[2] = tested on: TNF-α production in THP-1 cells; assay: Measurement of inhibiting activity of TNF-α production in LPS-stimulated THP-1 cells (ELISA), Reference Example F3; type: cell-based; conditions: Homo sapiens, LPS 5 μg/mL, 4 hours, read-out: IC50 (concentration necessary for inhibiting TNF-α production by 50%)
Description: as §1
After THP-1 cells which had been cultured in PRMI 1640 medium (manufactured by Life Technologies, Inc.) containing 1% non-activated bovine fetal serum (manufactured by Life Technologies, Inc., U.S.A.) and 10 mM HEPES (pH 7.5) seeded on a 96-well plate to 1×10^5 cells/well, 1 μL test compound dissolved in DMSO was added to there. After incubation at 37° C. for 1 hour in a CO2 incubator, LPS (Wako Pure Chemicals) was added to the final concentration 5 μg/mL. After cultured at 37° C. for 4 hours in a CO2 incubator, the supernatant was obtained by centrifugation. The concentration of TNF-α in the supernatant was measured with ELISA (R&D System, Quantikine Kit). The concentration (IC50 value) necessary for inhibiting TNF-α production by 50% was calculated by PRIMS 2.01 (Graphpad Software).

COc1ccc(-c2nc(N)sc2-c2cccnc2)cc1.Cl gave a melting point of 145 to 150 °C.
Compound COc1ccc(-c2nc(N)sc2-c2ccncc2)cc1 [13-14, [4-(4-methoxyphenyl)-5-(4-pyridyl)-1,3-thiazol-2-yl]amine] has an IC50 (human p38 MAP kinase) of 86 nM.
Nc1nc(-c2ccccc2)c(-c2ccncc2)s1 [13-15, [4-phenyl-5-(4-pyridyl)-1,3-thiazol-2-yl]amine] showed an IC50 (human p38 MAP kinase) of 81 nM.
Work on CNc1nc(-c2ccc(OC)cc2)c(-c2ccncc2)s1 [13-16, N-methyl [4-(4-methoxyphenyl)-5-(4-pyridyl)-1,3-thiazol-2-yl]amine] yielded an IC50 (human p38 MAP kinase) of 60 nM.
For CNc1nc(-c2ccc(Cl)cc2)c(-c2ccncc2)s1 [13-70, N-methyl [4-(4-chlorophenyl)-5-(4-pyridyl)-1,3-thiazol-2-yl]amine], the IC50 (human p38 MAP kinase) was 26 nM.
With Cc1cccc(-c2nc(N)sc2-c2ccncc2)c1 [23-60, [4-(3-methylphenyl)-5-(4-pyridyl)-1,3-thiazol-2-yl]amine] the IC50 [1] was 46 nM.
In the case of Fc1ccc(-c2nc(-c3ccccc3)sc2-c2ccncc2)cc1 [44-1, 4-(4-fluorophenyl)-2-phenyl-5-(4-pyridyl)-1,3-thiazole], the melting point is reported as 135 to 137 °C.
COc1ccc(-c2nc(N)sc2-c2cccnc2)cc1 [Reference Example A 8, [4-(4-methoxyphenyl)-5-(3-pyridyl)-1,3-thiazol-2-yl]amine] showed a melting point of 265 to 266 °C.
With CNc1nc(-c2ccc(OC)cc2)c(-c2cccnc2)s1 [Reference Example A 9, N-methyl [4-(4-methoxyphenyl)-5-(3-pyridyl)-1,3-thiazol-2-yl]amine] the melting point was 158 to 159 °C.
With Cc1cccc(-c2nc(-c3ccc(S(C)(=O)=O)cc3)sc2-c2ccnc(S(=O)(=O)c3ccccc3)c2)c1 [Reference Example D 28, 4-(3-methylphenyl)-2-(4-methylsulfonylphenyl)-5-(2-phenylsulfonyl-4-pyridyl)-1,3-thiazole] the melting point was 90 to 91 °C.
Cc1cc(C)cc(-c2nc(N)sc2-c2ccnc(NC(=O)c3ccccc3)c2)c1 [compound 5] gave an IC50 [2] of 20 nM.
